Experimental findings from US20140235630A1, “COMPOSITIONS AND METHODS FOR THE TREATMENT OF PROLIFERATIVE DISEASES” (Beth Israel Deaconess Medical Center, Inc., priority 2011, published 2014) are described below.

The test system of series [1] is tumor tissue of MMTV-CreBRCA1^f/fp53+/− mice. Put plainly: Immunohistochemistry / immunoblot of tumor tissue for γH2AX, Ki67, p-ERK. Details: species or system mouse. To be noted: in vivo treated tumors. On the procedure: FIG. 4B are immunohistochemical images of pre-treatment biopsies and post-Compound A treatment tumor tissues with antibodies against p-ERK, Ki67, and γH2AX showing an in vivo increase of γH2AX-positive cells after treatment with Compound A and proliferative activity at the “pushing margin.” Tumor-bearing mice were subjected to a pre-treatment biopsy and then treated with Compound A at 50 mg/kg/day. FIG. 6E are immunoblots with antibodies against actin, p-AKT, and γH2AX of tumor tissues harvested from animals 3 hours after last treatment with Compound A (30 mg/kg/day), Compound B (50 mg/kg/day), or their combination. FIG. 8A are immunohistochemical images of tumor tissues obtained from tumor-bearing […] pre-treatment (left column of images), at Day 10 of treatment (middle column of images), and post-treatment tissue at the time of progression (right column of images) following treatment with a combination of Compound A and Compound B. FIG. 8B is a graph of Ki67 (right bar graph in each treatment group) and γH2AX (left bar graph in each treatment group) levels in tumor biopsies in pre-treatment, on-treatment, and post-treatment at the time of progression groups. Ki67 and γH2AX were scored by counting and averaging the number of positive nuclei per high-power field (HPF). […] The protein concentration was determined using Bradford reagent (Biorad). […]

A short description of series [2]: Intratumoral Compound A concentration by LC/MS/MS. To be noted: 3 hours after last dose; Compound A 30 mg/kg/day, alone or with Compound B 50 mg/kg/day. In kind it is in vivo, mouse.
Method: FIG. 6F is a graph showing the intratumoral Compound A concentrations as assessed by mass spectrometry of tumor tissues harvested from animals 3 hours after last treatment with Compound A (30 mg/kg/day), Compound B (50 mg/kg/day), or their combination.
Metabolites from 100 mg of mouse tumor samples were extracted using 80% methanol according to Yuan et al. (Nat. Protoc., 7: 872-881, 2012) 10 μL were injected and analyzed using a 5500 QTRAP hybrid triple quadrupole mass spectrometer (AB/SCIEX) coupled to a Prominence UFLC HPLC system (Shimadzu) via selected reaction monitoring (SRM) for the Q1/Q3 transition of 410.8/367.0 for 5-(2,6-dimorpholinopyrimidin-4-yl)-4-(trifluoromethyl)pyridin-2-amine (Compound A). ESI voltage was +4900V in positive ion mode using a dwell time of 4 msec and collision energy of 45. Approximately 15 data points were obtained for Compound A per LC/MS/MS experiment. Samples were delivered to the MS via hydrophilic interaction chromatography (HILIC) using a 4.6 mm i.d×10 cm Amide Xbridge column (Waters) at 350 μL/min. Gradients were run starting from 85% buffer B (HPLC grade acetonitrile) to 42% B from 0-5 minutes; 42% B to 0% B from 5-16 minutes; 0% B was held from 16-24 minutes; 0% B to 85% B from 24-25 minutes; 85% B was held for 7 minutes to re-equilibrate the column. Compound A eluted at approximately 3.50 min. […]
In series [3] the test system is breast cancer cells isolated from tumors of MMTV-CreBRCA1^f/fp53+/− mice. The experiment in a line: Rad51 foci immunofluorescence after ionizing radiation. In kind it is cell-based, mouse. To be noted: pre-treatment, 10 Gy, 6 hours post-irradiation. The procedure:
FIGS. 5B-5E are immunofluorescence images of breast cancer cells isolated from primary tumors from MMTV-CreBRCA1^f/fp53+/− mice either treated with vehicle control (5B and 5C) or Compound A (5D and 5E) for 18 hours, followed by irradiation with 10 Gy IR 6 hours later cells, using antibodies against Rad51 and counterstained with DAPI. Rad51 foci are depicted as lighter punctuate signals within the cells (5C).
Cells were plated on coverslips in a 6-well plates and incubated overnight at 37° C. with 5% CO2 before drug treatment. Cells were exposed to 5-(2,6-dimorpholinopyrimidin-4-yl)-4-(trifluoromethyl)pyridin-2-amine (Compound A) for […] followed by irradiation (10 Gy). Cells were fixed with 3% paraformaldehyde and 2% sucrose diluted in PBS 6 h post-irradiation and subsequently permeabilized with 0.5% TritonX-100 buffer (20 mM HEPES pH7.4, 50 mM NaCl, 3 mM MgCl, 300 mM sucrose) for 3 minutes on ice. Cells were incubated with a primary rabbit anti human Rad-51 antiserum at 1:500 dilution in hybridization buffer (5% goat serum, 0.5% NaN3, 1×PBS) for 30 min at 37° C. and subsequently washed thrice in PBS before incubation with secondary antibody for 30 minutes at 37° C. Secondary antibody used was a donkey anti-rabbit Alexafluor 488 conjugated (Invitrogen) at a concentration of 1:50. […]

Regarding `Nc1cc(C(F)(F)F)c(-c2cc(N3CCOCC3)nc(N3CCOCC3)n2)cn1` [Compound A, 5-(2,6-dimorpholinopyrimidin-4-yl)-4-(trifluoromethyl)pyridin-2-amine], the “percentage of tumor cells that express γH2AX / γH2AX in tumor lysates” value in series [1] is given as “substantial increase”. Further, the “Compound A levels in tumor tissues” value in series [2] is “consistently in the micro-molar range”. The “formation of Rad51 foci in response to ionizing radiation” value in series [3] was “completely blocked”.
